Results as given in PubChem BioAssay AID256 (DTP/NCI, 2004).
Toxic doses and inconclusive results are not listed.

Test system: CD2F1 mice, L1210 leukemia ip, survival T/C
Assay: NCI In Vivo Anticancer Drug Screen. Data for tumor model L1210 Leukemia (intraperitoneal) in CD2F1 (CDF1) mice
Settings: higher = longer survival
In short: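 Ratio T/C, where T is the treated-group value and C the vehicle-dosed control value, from mice implanted with a transplantable tumor.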

[1] = endpoint: mean survival time, dose: 25.0 mg/kg/injection, schedule: Q04DX002 (ip), vehicle: saline with Tween-80
[2] = endpoint: mean survival time, dose: 50.0 mg/kg/injection, schedule: Q04DX002 (ip), vehicle: saline with Tween-80
[3] = endpoint: mean survival time, dose: 100.0 mg/kg/injection, schedule: Q01DX009 (ip), vehicle: saline sonified
[4] = endpoint: mean survival time, dose: 200.0 mg/kg/injection, schedule: Q01DX009 (ip), vehicle: saline sonified
[5] = endpoint: mean survival time, dose: 100.0 mg/kg/injection, schedule: Q01DX001 (ip), vehicle: saline with Tween-80
[6] = endpoint: mean survival time, dose: 200.0 mg/kg/injection, schedule: Q01DX001 (ip), vehicle: saline with Tween-80
[7] = endpoint: mean survival time, dose: 400.0 mg/kg/injection, schedule: Q01DX001 (ip), vehicle: saline with Tween-80
[8] = endpoint: mean survival time, dose: 100.0 mg/kg/injection, schedule: Q01DX009 (ip), vehicle: saline with Tween-80
[9] = endpoint: mean survival time, dose: 200.0 mg/kg/injection, schedule: Q01DX009 (ip), vehicle: saline with Tween-80
[10] = endpoint: mean survival time, dose: 400.0 mg/kg/injection, schedule: Q01DX009 (ip), vehicle: saline with Tween-80
[11] = endpoint: mean survival time, dose: 100.0 mg/kg/injection, schedule: Q04DX003 (ip), vehicle: saline with Tween-80
[12] = endpoint: mean survival time, dose: 200.0 mg/kg/injection, schedule: Q04DX003 (ip), vehicle: saline with Tween-80
[13] = endpoint: mean survival time, dose: 400.0 mg/kg/injection, schedule: Q04DX003 (ip), vehicle: saline with Tween-80
[14] = endpoint: mean survival time, dose: 100.0 mg/kg/injection, schedule: Q01DX009 (ip), vehicle: saline
[15] = endpoint: mean survival time, dose: 200.0 mg/kg/injection, schedule: Q01DX009 (ip), vehicle: saline

NC(Cc1c[nH]c2ccc(N(CCCl)CCCl)cc12)C(=O)O (configuration not stated)
T/C (endpoint: mean survival time, dose: 0.5 mg/kg/injection, schedule: Q01DX010 (ip), vehicle: saline): 150 % of control
T/C (endpoint: mean survival time, dose: 1.0 mg/kg/injection, schedule: Q01DX010 (ip), vehicle: saline): 160 % of control
T/C (endpoint: mean survival time, dose: 2.0 mg/kg/injection, schedule: Q01DX010 (ip), vehicle: saline): 208 % of control

O=[N+]([O-])c1ccc(/C=N\N=C\c2ccc([N+](=O)[O-])cc2)cc1
T/C (endpoint: mean survival time, dose: 50.0 mg/kg/injection, schedule: Q01DX009 (ip), vehicle: Klucel (hydroxypropylcellulose) (HPC)): 106 % of control
T/C (endpoint: mean survival time, dose: 100.0 mg/kg/injection, schedule: Q01DX009 (ip), vehicle: Klucel (hydroxypropylcellulose) (HPC)): 106 % of control
T/C (endpoint: mean survival time, dose: 200.0 mg/kg/injection, schedule: Q01DX009 (ip), vehicle: Klucel (hydroxypropylcellulose) (HPC)): 109 % of control

COc1ccc(NC(=O)Nc2cccc(Cl)c2)c(Cl)c1
T/C [1]: 88 % of control
T/C [2]: 92 % of control
T/C (endpoint: mean survival time, dose: 400.0 mg/kg/injection, schedule: Q04DX002 (ip), vehicle: saline with Tween-80): 88 % of control

CC1(C)CC(Cl)(C(O)c2ccc([N+](=O)[O-])cc2)C(=O)c2ccccc21 (configuration not stated)
T/C (endpoint: mean survival time, dose: 100.0 mg/kg/injection, schedule: Q04DX003 (ip), vehicle: acetone): 95 % of control
T/C (endpoint: mean survival time, dose: 200.0 mg/kg/injection, schedule: Q04DX003 (ip), vehicle: acetone): 98 % of control
T/C (endpoint: mean survival time, dose: 400.0 mg/kg/injection, schedule: Q04DX003 (ip), vehicle: acetone): 88 % of control

CC1CC(C)(C)CC2(C1)OCC(CCl)O2 (configuration not stated)
T/C [3]: 95 % of control
T/C [4]: 87 % of control
T/C (endpoint: mean survival time, dose: 400.0 mg/kg/injection, schedule: Q01DX009 (ip), vehicle: saline sonified): 106 % of control

CCSC(SCC)C(O)C(O)C1COC(C)(C)O1 (configuration not stated)
T/C [5]: 93 % of control
T/C [6]: 93 % of control
T/C [7]: 101 % of control

COS(=O)(=O)CC(O)(c1ccccc1)c1ccccc1
T/C (endpoint: mean survival time, dose: 75.0 mg/kg/injection, schedule: Q01DX009 (ip), vehicle: saline): 102 % of control
T/C (endpoint: mean survival time, dose: 75.0 mg/kg/injection, schedule: Q04DX003 (ip), vehicle: saline): 97 % of control
T/C (endpoint: mean survival time, dose: 150.0 mg/kg/injection, schedule: Q01DX009 (ip), vehicle: saline): 100 % of control
T/C (endpoint: mean survival time, dose: 150.0 mg/kg/injection, schedule: Q04DX003 (ip), vehicle: saline): 95 % of control
T/C (endpoint: mean survival time, dose: 300.0 mg/kg/injection, schedule: Q01DX009 (ip), vehicle: saline): 100 % of control
T/C (endpoint: mean survival time, dose: 300.0 mg/kg/injection, schedule: Q04DX003 (ip), vehicle: saline): 95 % of control

CCOP1(=S)Nc2cc(C)c(C)cc2N1
T/C [1]: 98 % of control
T/C [2]: 87 % of control
T/C (endpoint: mean survival time, dose: 100.0 mg/kg/injection, schedule: Q04DX002 (ip), vehicle: saline with Tween-80): 87 % of control
T/C (endpoint: mean survival time, dose: 200.0 mg/kg/injection, schedule: Q04DX002 (ip), vehicle: saline with Tween-80): 87 % of control

C=C(C)C12CC(COC(=O)c3ccccc3)C34OC5(OC1C3C1OC1(CO)C(O)C1(O)C(OC(=O)c3ccccc3)C(C)C(C(C)CCCCCCC5O)C14)O2 (configuration not stated)
T/C (endpoint: mean survival time, dose: 1.5 micrograms/kg/injection, schedule: Q01DX009 (ip), vehicle: saline): 103 % of control
T/C (endpoint: mean survival time, dose: 3.1 micrograms/kg/injection, schedule: Q01DX009 (ip), vehicle: saline): 98 % of control
T/C (endpoint: mean survival time, dose: 6.2 micrograms/kg/injection, schedule: Q01DX009 (ip), vehicle: saline): 97 % of control
T/C (endpoint: mean survival time, dose: 12.5 micrograms/kg/injection, schedule: Q01DX009 (ip), vehicle: saline): 98 % of control

CCCN(CCC)S(=O)(=O)c1ccc(NC(=O)OC2CCCCCCC2)cc1
T/C (endpoint: mean survival time, dose: 100.0 mg/kg/injection, schedule: Q01DX001 (ip), vehicle: saline): 92 % of control
T/C (endpoint: mean survival time, dose: 200.0 mg/kg/injection, schedule: Q01DX001 (ip), vehicle: saline): 98 % of control
T/C (endpoint: mean survival time, dose: 400.0 mg/kg/injection, schedule: Q01DX001 (ip), vehicle: saline): 101 % of control

CCC1(C)CCC2=C(CCC3C(C)(C(=O)O)CCCC23C)C1 (configuration not stated)
T/C [5]: 96 % of control
T/C [8]: 93 % of control
T/C [6]: 91 % of control
T/C [9]: 91 % of control
T/C [7]: 96 % of control

CC(C)(C)N1CC(C(O)(c2ccccc2)c2ccccc2)C1
T/C (endpoint: mean survival time, dose: 25.0 mg/kg/injection, schedule: Q01DX001 (ip), vehicle: saline with Tween-80): 101 % of control
T/C (endpoint: mean survival time, dose: 50.0 mg/kg/injection, schedule: Q01DX001 (ip), vehicle: saline with Tween-80): 101 % of control

O=CC(O)C(O)C(OC1OC(CO)C(OC2OC(CO)C(O)C(O)C2O)C(O)C1O)C(O)CO (configuration not stated)
T/C [8]: 98 % of control
T/C [9]: 95 % of control
T/C [10]: 95 % of control

CC1C=CC(C)c2c(-c3ccccc3)oc(-c3ccccc3)c21 (configuration not stated)
T/C [8]: 88 % of control
T/C [11]: 100 % of control
T/C [9]: 86 % of control
T/C [12]: 97 % of control
T/C [10]: 91 % of control
T/C [13]: 96 % of control

[Cl][Mn][Cl]
T/C (endpoint: median survival time, dose: 8.0 mg/kg/injection, schedule: Q01DX009 (ip), vehicle: saline): 92 % of control
T/C (endpoint: median survival time, dose: 16.0 mg/kg/injection, schedule: Q01DX009 (ip), vehicle: saline): 97 % of control
T/C (endpoint: median survival time, dose: 32.0 mg/kg/injection, schedule: Q01DX009 (ip), vehicle: saline): 103 % of control
T/C (endpoint: median survival time, dose: 64.0 mg/kg/injection, schedule: Q01DX009 (ip), vehicle: saline): 110 % of control

COC1OC(COC(C)=O)C(OC2OC(COC(C)=O)C(OC(C)=O)C(OC(C)=O)C2OC(C)=O)C(OC(C)=O)C1OC(C)=O (configuration not stated)
T/C [8]: 98 % of control
T/C [9]: 104 % of control
T/C [10]: 106 % of control

CCOC(=O)/C(C)=C/C(O)CO (configuration not stated)
T/C [3]: 96 % of control
T/C [11]: 105 % of control
T/C [4]: 95 % of control
T/C [12]: 98 % of control
T/C [13]: 96 % of control

CC1(C)OC2C(C#N)OC(n3ccc(=O)[nH]c3=O)C2O1 (configuration not stated)
T/C (endpoint: median survival time, dose: 21.88 mg/kg/injection, schedule: Q01DX005 (ip), vehicle: Klucel (hydroxypropylcellulose) (HPC)): 101 % of control
T/C (endpoint: median survival time, dose: 43.75 mg/kg/injection, schedule: Q01DX005 (ip), vehicle: Klucel (hydroxypropylcellulose) (HPC)): 102 % of control
T/C (endpoint: median survival time, dose: 87.5 mg/kg/injection, schedule: Q01DX005 (ip), vehicle: Klucel (hydroxypropylcellulose) (HPC)): 98 % of control
T/C (endpoint: median survival time, dose: 175.0 mg/kg/injection, schedule: Q01DX005 (ip), vehicle: Klucel (hydroxypropylcellulose) (HPC)): 102 % of control

O=C(c1ccccc1)C1CC1c1ccccc1 (configuration not stated)
T/C [14]: 101 % of control
T/C [15]: 90 % of control
T/C (endpoint: mean survival time, dose: 400.0 mg/kg/injection, schedule: Q01DX009 (ip), vehicle: saline): 94 % of control

COC(=O)C(CSC(c1ccccc1)(c1ccccc1)c1ccccc1)NC(=O)CCNC(=O)OCc1ccccc1 (configuration not stated)
T/C (endpoint: mean survival time, dose: 12.5 mg/kg/injection, schedule: Q01DX009 (ip), vehicle: water): 93 % of control
T/C (endpoint: mean survival time, dose: 25.0 mg/kg/injection, schedule: Q01DX009 (ip), vehicle: water): 91 % of control
T/C (endpoint: mean survival time, dose: 50.0 mg/kg/injection, schedule: Q01DX009 (ip), vehicle: water): 90 % of control
T/C (endpoint: mean survival time, dose: 100.0 mg/kg/injection, schedule: Q01DX009 (ip), vehicle: water): 90 % of control

O=NN(CCCl)C(=O)Oc1cc(Cl)c(Cl)cc1Cl
T/C (endpoint: median survival time, dose: 6.0 mg/kg/injection, schedule: Q01DX009 (ip), vehicle: Klucel (hydroxypropylcellulose) (HPC)): 106 % of control
T/C (endpoint: median survival time, dose: 12.0 mg/kg/injection, schedule: Q01DX009 (ip), vehicle: Klucel (hydroxypropylcellulose) (HPC)): 124 % of control
T/C (endpoint: median survival time, dose: 12.5 mg/kg/injection, schedule: Q01DX009 (ip), vehicle: Klucel (hydroxypropylcellulose) (HPC)): 109 % of control
T/C (endpoint: median survival time, dose: 50.0 mg/kg/injection, schedule: Q01DX009 (ip), vehicle: Klucel (hydroxypropylcellulose) (HPC)): 195 % of control

CCCCCCCCCCCCCCCC(=O)OCC1OC(N2C=CC(=O)CC2=O)C(O)C1O (configuration not stated)
T/C (endpoint: median survival time, dose: 13.0 mg/kg/injection, schedule: Q01DX009 (ip), vehicle: saline + alcohol): 174 % of control
T/C (endpoint: median survival time, dose: 20.0 mg/kg/injection, schedule: Q01DX009 (ip), vehicle: saline + alcohol): 188 % of control
T/C (endpoint: median survival time, dose: 30.0 mg/kg/injection, schedule: Q01DX009 (ip), vehicle: saline + alcohol): 174 % of control

CC(=O)C1C(=O)C(=O)OC1C (configuration not stated)
T/C (endpoint: mean survival time, dose: 50.0 mg/kg/injection, schedule: Q01DX009 (ip), vehicle: saline): 102 % of control
T/C [14]: 98 % of control
T/C [15]: 101 % of control

COC1OC2COc3ccccc3OC2C(NC#N)C1OC(C)=O (configuration not stated)
T/C [5]: 101 % of control
T/C [6]: 100 % of control
T/C [7]: 100 % of control
